# Experimental data published in patent publication US7932262B2 (Novartis AG, priority 2006, dated 2011).
# pEC50, pIC50: −log10 of the molar value. Like-named read-outs stand apart in the source and are kept apart here.
# What was measured:
# PDK1 kinase = target: T1, PDK1 kinase (Homo sapiens, UniProt O15530); assay: PDK1 Kinase Alpha Screen Assay; type: biochemical; conditions: read-out: PDK1 IC50
# T1 sequence (O15530 1-556): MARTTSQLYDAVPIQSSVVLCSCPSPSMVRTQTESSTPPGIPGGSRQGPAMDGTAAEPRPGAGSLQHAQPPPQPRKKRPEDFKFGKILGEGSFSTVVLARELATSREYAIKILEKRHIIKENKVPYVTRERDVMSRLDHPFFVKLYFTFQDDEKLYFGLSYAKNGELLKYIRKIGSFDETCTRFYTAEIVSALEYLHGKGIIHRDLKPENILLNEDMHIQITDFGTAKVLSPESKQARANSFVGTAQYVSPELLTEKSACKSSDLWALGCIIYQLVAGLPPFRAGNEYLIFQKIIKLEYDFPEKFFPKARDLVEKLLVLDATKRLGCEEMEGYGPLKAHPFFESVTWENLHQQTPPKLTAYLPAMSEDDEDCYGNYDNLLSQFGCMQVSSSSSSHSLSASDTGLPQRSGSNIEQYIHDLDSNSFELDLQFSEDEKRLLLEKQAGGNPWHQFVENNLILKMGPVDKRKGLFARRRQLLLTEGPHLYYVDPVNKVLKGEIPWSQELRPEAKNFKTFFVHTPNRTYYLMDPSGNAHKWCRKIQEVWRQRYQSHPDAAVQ
# Method: 1. PDK1 Kinase Alpha Screen Assay
# Reagents/Concentrations: The PDK1-4 peptide substrate, biotin-[…]-NH2, was purchased from the Tufts University Core Facility. The final concentration of PDK1-4 peptide substrate was 50 nM The ATP substrate (Adenosine-5′-triphosphate) was purchased from Roche Diagnostics. The final concentration of ATP substrate was 10 uM. Phospho-(Ser/Thr) PKA substrate antibody was purchased from Cell Signaling Technology. The final concentration of antibody was 0.3 mg/ml. The Alpha Screen Protein A detection kit containing donor and acceptor beads was purchased from PerkinElmer Life Sciences. The final concentration of both donor and acceptor beads was 25 μg/ml. Alpha Screen was used for detection. The biotinylated-PDK1-4 peptide was phosphorylated by PDK1 kinase using the ATP substrate. The biotinylated-PDK1-4 peptide substrate was bound to the streptavidin coated donor bead. The antibody was bound to the protein A coated acceptor bead. The antibody bound to the phosphorylated form of the biotinylated PDK-1 peptide substrate, bringing the donor and acceptor beads into close proximity. Laser irradiation of the donor bead at 680 nm generated a flow of short-lived singlet oxygen molecules. When the donor and acceptor beads were in close proximity, the reactive oxygen generated by the irradiation of the donor beads initiated a luminescence/fluorescence cascade in the acceptor beads. This process led to a highly amplified signal with output in the 530-620 nm range. Assays were carried out in 50 mM Tris, pH=7.5, 10 mM MgCl2, 0.1% Bovine Serum Albumin, 0.01% Tween-20, 2 mM Dithiolthreitol, 2.5% Dimethyl Sulfoxide. Reactions were stopped by adding 50 mM Tris, pH=7.5, 90 mM EDTA, 0.1% Bovine Serum Albumin, 0.01% Tween-20.
# Procedure: To 10 μl of PDK1-4 peptide, 0.5 μl of test compound in dimethyl sulfoxide is added. PDK1 kinase and ATP are mixed. 10 μl of the PDK1 kinase/ATP mix is added to start the reaction. The reaction is allowed to proceed for 3-18 hours. The reactions are stopped by adding 10 μl of the EDTA-containing stop buffer. Beads are mixed with antibody. 25 μl of the bead/antibody mix is added to the stopped reactions. Plates are incubated at room temperature overnight to allow for detection development before being read. The assay is run is a 384-well format. […]
# PC-3 cells = assay: Cell Proliferation Assay (Cell Titer Glo), PC-3 cell line; type: cell-based
# Method: IV. Cell Proliferation Assay Protocol:
# A2780, PC-3, or PC3MM cells were seeded at 1000 cells/well in 100 μL/well (10.000 cells/mL) growth media in 96-well plates. Cells were allowed to adhere to the bottom of plates for 3-5 hours in a 37° C. 5% CO2 incubator. Compounds were dissolved in DMSO and then transferred to the cell plates. The cells were incubated with the compounds for 3 days in a 37° C. 5% CO2 incubator. The growth medium containing the compounds was then removed from the cells and fresh medium was added, followed by 100 μL of Cell Titer Glo assay reagent (Promega). This mixture was shaken for 1 minute and then incubated without shaking for 10 minutes. Activity determinations for the compounds were made by detection on a Trilux Instrument.
# V. Cell Proliferation Assay Protocol: PC-3 Cell Line
# PC-3 cells were seeded at 1000 cells/well in 100 μL/well (10.000 cells/mL) along with growth media into black-walled, clear bottom 96-well plates. The cells were allowed to adhere to the bottom of the plate for 3-5 hours in a 37° C. 5% CO2 incubator.
# Test compounds were diluted to 500× in DMSO. The DMSO solutions of six of the compounds were transferred to the cells in the 96 well round bottom plate, column 2, row B-F. A 1:3 serial dilution of each compound was carried out. The serial dilution comprised adding 20 μL of DMSO to the wells containing the compounds and doing a 1:3 dilution across the plate from columns 2-10. Column 11 contained only DMSO. The serial dilution was carried out using a BioMek 2000 protocol “CP Serial Dilution using 250 μL tips” or “Proliferation Compound” (if using 20 μL tips).
# To a 96 deep well block, columns 2-11 rows B-F, was transferred 500 μL of growth medium. Using the FX protocol “HH_CellAssay—2 μL to 500 μL”, 2 μL of compound from each cell of the compound plate was transferred to the corresponding cell in the 96 deep well block containing 500 μL of growth medium. The instrument was programmed to dilute the compound in growth medium and then transfer 100 μL of that mixture to cell plates containing cells. The cell plates, to which test compounds had been added, were incubated for 3 days at 37° C. Following the incubation, the medium was removed and replaced with fresh medium. Cell Titer Glo (100 μL) was added to each well and the plate was shaken for 1 minute and then incubated without shaking for 10 minutes. The plates were then read using a Trilux instrument.
# [1] = Homo sapiens, PC-3, 72 h, PC-3 cells, 3 days incubation, read-out: CP EC50 PC3
# [2] = Homo sapiens, PC-3, Cell Proliferation Assay, PC3, read-out: CPEC50 PC3
pIC50 (PDK1 kinase; PDK1 Kinase Alpha Screen Assay),"pEC50 (PC-3 cells; Cell Proliferation Assay, PC3, read-out: CPEC50 PC3)",pIC50 (PDK1 kinase),pEC50 (PC-3 cells; [1]),pEC50 (PC-3 cells; [2]),Compound
> 5.30,> 5.30,,,,8-(6-(2-(pyrrolidin-1- yl)ethylamino)pyridin-3-yl)-N-(4- (trifluoromethoxy)phenyl)quinazoin- 2-amine [Compound 394]
,,> 5.30,> 5.30,,"CCN1CCC(Oc2ccc3cnc(Nc4cc(OC)cc(OC)c4)nc3c2)CC1 [Compound 56, (3,5-Dimethoxy-phenyl)-[7-(1-ethyl-piperidin-4-yloxy)-quinazolin-2-yl]-amine]"
,,> 5.30,> 5.30,,"CC(C)N1CCC(Oc2ccc3cnc(Nc4ccc(Cl)cc4)nc3c2)CC1 [Compound 57, (4-Chloro-phenyl)-[7-(1-isopropyl-piperidin-4-yloxy)-quinazolin-2-yl]-amine]"
,,> 5.30,5.00 to 5.30,,"CC(C)N1CCC(Oc2ccc3cnc(Nc4ccc(F)cc4)nc3c2)CC1 [Compound 60, (4-Fluoro-phenyl)-[7-(1-isopropyl-piperidin-4-yloxy)-quinazolin-2-yl]-amine]"
,,> 5.30,5.00 to 5.30,,"CC(C)N1CCC(Oc2ccc3cnc(Nc4ccc(N)c(Cl)c4)nc3c2)CC1 [Compound 62, 2-Chloro-N*4*-[7-(1-isopropyl-piperidin-4-yloxy)-quinazolin-2-yl] benzene-1,4-diamine]"
,,> 5.30,5.00 to 5.30,,"Nc1cc(C(F)(F)F)c(-c2ccc3cnc(Nc4ccc(S(N)(=O)=O)cc4)nc3c2OC2CCNCC2)cn1 [Compound 69, 4-[7-(6-Amino-4-trifluoromethyl-pyridin-3-yl)-8-(piperidin-4-yloxy)-quinazolin-2-ylamino]-benzenesulfonamide]"
,,> 5.30,> 5.30,,"CC(C)N1CCC(Oc2cccc3cnc(Nc4ccc(CC(N)=O)cc4)nc23)CC1 [Compound 74, 2-{4-[8-(1-Isopropyl-piperidin-4-yloxy)-quinazolin-2-ylamino]-phenyl}-acetamide]"
,,> 5.30,> 5.30,,"CC(C)N1CCC(Oc2cccc3cnc(Nc4ccc(NC(=O)N5CCCC5)cc4)nc23)CC1 [Compound 75, Pyrrolidine-1-carboxylic acid {4-[8-(1-isopropyl-piperidin-4-yloxy)-quinazolin-2-ylamino]-phenyl}-amide]"
,,> 5.30,> 5.30,,"CC(C)N1CCC(Oc2cccc3cnc(Nc4cccc(CC(N)=O)c4)nc23)CC1 [Compound 76, 2-{3-[8-(1-Isopropyl-piperidin-4-yloxy)-quinazolin-2-ylamino]-phenyl}-acetamide]"
,,> 5.30,> 5.30,,"CNC(=O)Cc1cccc(NC(=O)Cc2cccc(Nc3ncc4cccc(OC5CCN(C(C)C)CC5)c4n3)c2)c1 [Compound 78, 2-{3-[8-(1-Isopropyl-piperidin-4-yloxy)-quinazolin-2-ylamino]-phenyl}-N-(3-methylcarbamoylmethyl-phenyl)-acetamide]"
,,> 5.30,> 5.30,,"CC(C)NC(=O)Cc1cccc(Nc2ncc3cccc(OC4CCN(C(C)C)CC4)c3n2)c1 [Compound 79, N-Isopropyl-2-{3-[8-(1-isopropyl-piperidin-4-yloxy)-quinazolin-2-ylamino]-phenyl}-acetamide]"
,,> 5.30,5.00 to 5.30,,"CC(C)N1CCC(Oc2cccc3cnc(Nc4cccc(N5CCOCC5)c4)nc23)CC1 [Compound 80, [8-(1-Isopropyl-piperidin-4-yloxy)-quinazolin-2-yl]-(3-morpholin-4-yl-phenyl)-amine]"
,,> 5.30,> 5.30,,"CNS(=O)(=O)Cc1ccc(Nc2ncc3cccc(OC4CCN(C(C)C)CC4)c3n2)cc1 [Compound 82, C-{4-[8-(1-Isopropyl-piperidin-4-yloxy)-quinazolin-2-ylamino]-phenyl}-N-methyl-methanesulfonamide]"
,,> 5.30,5.00 to 5.30,,"CC(C)N1CCC(Oc2cccc3cnc(Nc4ccc(F)cc4)nc23)CC1 [Compound 83, (4-Fluoro-phenyl)-[8-(1-isopropyl-piperidin-4-yloxy)-quinazolin-2-yl]-amine]"
,,> 5.30,> 5.30,,CC(C)N1CCC(Oc2cccc3cnc(Nc4ccc(Cl)cc4)nc23)CC1 [Compound 84]
,,> 5.30,> 5.30,,"CC(C)N1CCC(Oc2cccc3cnc(Nc4ccc(C(F)(F)F)cc4)nc23)CC1 [Compound 85, [8-(1-Isopropyl-piperidin-4-yloxy)-quinazolin-2-yl]-(4-trifluoromethyl-phenyl)-amine]"
> 5.30,,,,> 5.30,"CC(C)N1CCC(Oc2ccc3cnc(Nc4ccc(C(F)(F)F)cc4)nc3c2)CC1 [Compound 318, 7-(1-isopropylpiperidin-4-yloxy)-N-(4-(trifluoromethyl)phenyl)quinazolin-2-amine]"
> 5.30,,,,> 5.30,"CC(C)N1CCC(Oc2ccc3cnc(Nc4ccc(OC(F)(F)F)cc4)nc3c2)CC1 [Compound 319, 7-(1-isopropylpiperidin-4-yloxy)-N-(4-(trifluoromethoxy)phenyl)quinazolin-2-amine]"
> 5.30,,,,> 5.30,"CC(=O)Nc1ccc(Nc2ncc3ccc(OC4CCN(C(C)C)CC4)cc3n2)cc1Cl [Compound 320, N-(2-chloro-4-(7-(1-isopropylpiperidin-4-yloxy)quinazolin-2-ylamino)phenyl)acetamide]"
> 5.30,,,,5.00 to 5.30,"COc1cc(S(N)(=O)=O)c(OC)cc1Nc1ncc2ccc(OC3CCNCC3)cc2n1 [Compound 321, 2,5-dimethoxy-4-(7-(piperidin-4-yloxy)quinazolin-2-ylamino)benzenesulfonamide]"
> 5.30,,,,5.00 to 5.30,Cc1ccc(Nc2ncc3ccc(OC4CCNCC4)cc3n2)cc1NS(C)(=O)=O [Compound 325]
> 5.30,,,,5.00 to 5.30,"CC(C)N1CCC(c2c(O)ccc3cnc(Nc4nc5ccccc5s4)nc23)CC1 [Compound 326, 2-(benzo[d]thiazol-2-ylamino)-8-(1-isopropylpiperidin-4-yl)quinazolin-7-ol]"
